According to patent US9113629B2, “4-amino-6-(4-substituted-phenyl)-picolinates and 6-amino-2-(4-substituted-phenyl)-pyrimidine-4-carboxylates and their use as herbicides” (DOW AGROSCIENCES LLC, priority 2013, dated 2015):
Like-named read-outs stand apart in the source and are kept apart here.

Key:
[1] = test system: Key Broadleaf Weed and Crop Species; test: Post-emergent Test II herbicidal activity (Table 5); type: in vivo; conditions: post-emergence, 336 h, 14 days after application; for pest or weed control at 70 g/ha: application rate 70 g ai/ha; for pest or weed control at 140 g/ha: application rate 140 g ai/ha
Method in brief: (§1)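 Percent injury, 0 (none) to 100 (complete kill), was judged visually 14 d after spraying young plants at the first or second true leaf stage with compound in an acetone/DMSO aqueous carrier at 187 L/ha. Plants were kept in a greenhouse at 23–29 °C by day.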

[2] = test system: Key Grass and Sedge Weeds as well as Grass Crops; test: Post-emergent Test II herbicidal activity (Table 6); type: in vivo; conditions: post-emergence, 336 h; for pest or weed control at 70 g/ha: 70 g ai/ha; for pest or weed control at 140 g/ha: 140 g ai/ha
Method in brief: as §1

[3] = ABUTH: velvetleaf (Abutilon theophrasti), read-out: Visual Growth Reduction (%) 14 Days After Application, ABUTH
[4] = AMARE: redroot pigweed (Amaranthus retroflexus), read-out: Visual Growth Reduction (%) 14 Days After Application, AMARE
[5] = BRSNN: oilseed-rape, canola (Brassica napus), read-out: Visual Growth Reduction (%) 14 Days After Application, BRSNN
[6] = CHEAL: lambsquarters (Chenopodium album), read-out: Visual Growth Reduction (%) 14 Days After Application, CHEAL
[7] = EPHHL: wild poinsettia (Euphorbia heterophylla), read-out: Visual Growth Reduction (%) 14 Days After Application, EPHHL
[8] = HELAN: sunflower (Helianthus annuus), read-out: Visual Growth Reduction (%) 14 Days After Application, HELAN
[9] = VIOTR: wild pansy (Viola tricolor), read-out: Visual Growth Reduction (%) 14 Days After Application, VIOTR
[10] = CYPES: yellow nutsedge (Cyperus esculentus), read-out: Visual Growth Reduction (%) 14 Days After Application, CYPES
[11] = DIGSA: crabgrass (Digitaria sanguinalis), read-out: Visual Growth Reduction (%) 14 Days After Application, DIGSA
[12] = ECHCG: barnyardgrass (Echinochloa crus-galli), read-out: Visual Growth Reduction (%) 14 Days After Application, ECHCG
[13] = ORYSA: rice (Oryza sativa), crop, read-out: Visual Growth Reduction (%) 14 Days After Application, ORYSA
[14] = SETFA: giant foxtail (Setaria faberi), read-out: Visual Growth Reduction (%) 14 Days After Application, SETFA
[15] = SORVU: grain sorghum (Sorghum vulgare), read-out: Visual Growth Reduction (%) 14 Days After Application, SORVU
[16] = TRZSS (wheat, Triticum aestivum), crop, read-out: Visual Growth Reduction (%) 14 Days After Application, TRZSS
[17] = ZEAMX: maize, corn (Zea mays), crop, read-out: Visual Growth Reduction (%) 14 Days After Application, ZEAMX

COC(=O)c1nc(-c2ccc(Br)cc2)cc(N)c1Cl [Compound 67]
pest or weed control at 70 g/ha [1, 3]: 95 to 100% | pest or weed control at 140 g/ha [1, 3]: 95 to 100% | pest or weed control at 70 g/ha [1, 4]: 95 to 100% | pest or weed control at 140 g/ha [1, 4]: 95 to 100% | pest or weed control at 70 g/ha [1, 5]: 0 to 29% | pest or weed control at 140 g/ha [1, 5]: 60 to 74% | pest or weed control at 70 g/ha [1, 6]: 95 to 100% | pest or weed control at 140 g/ha [1, 6]: 95 to 100% | pest or weed control at 70 g/ha [1, 7]: 95 to 100% | pest or weed control at 140 g/ha [1, 7]: 95 to 100% | pest or weed control at 70 g/ha [1, 8]: 85 to 94% | pest or weed control at 140 g/ha [1, 8]: 95 to 100% | pest or weed control at 70 g/ha [1, 9]: 0 to 29% | pest or weed control at 140 g/ha [1, 9]: 0 to 29% | pest or weed control at 70 g/ha [2, 10]: 95 to 100% | pest or weed control at 140 g/ha [2, 10]: 95 to 100% | pest or weed control at 70 g/ha [2, 11]: 60 to 74% | pest or weed control at 140 g/ha [2, 11]: 75 to 84% | pest or weed control at 70 g/ha [2, 12]: 85 to 94% | pest or weed control at 140 g/ha [2, 12]: 95 to 100% | pest or weed control at 70 g/ha [2, 13]: 0 to 29% | pest or weed control at 140 g/ha [2, 13]: 0 to 29% | pest or weed control at 70 g/ha [2, 14]: 0 to 29% | pest or weed control at 140 g/ha [2, 14]: 0 to 29% | pest or weed control at 70 g/ha [2, 15]: 85 to 94% | pest or weed control at 140 g/ha [2, 15]: 85 to 94% | pest or weed control at 70 g/ha [2, 16]: 0 to 29% | pest or weed control at 140 g/ha [2, 16]: 0 to 29% | pest or weed control at 70 g/ha [2, 17]: 0 to 29% | pest or weed control at 140 g/ha [2, 17]: 45 to 59%

COC(=O)c1nc(-c2ccc(Br)cc2)nc(N)c1OC [Compound 97]
pest or weed control at 70 g/ha [1, 3]: 85 to 94% | pest or weed control at 140 g/ha [1, 3]: 95 to 100% | pest or weed control at 70 g/ha [1, 4]: 95 to 100% | pest or weed control at 140 g/ha [1, 4]: 95 to 100% | pest or weed control at 70 g/ha [1, 5]: 85 to 94% | pest or weed control at 140 g/ha [1, 5]: 95 to 100% | pest or weed control at 70 g/ha [1, 6]: 85 to 94% | pest or weed control at 140 g/ha [1, 6]: 95 to 100% | pest or weed control at 70 g/ha [1, 7]: 95 to 100% | pest or weed control at 140 g/ha [1, 7]: 95 to 100% | pest or weed control at 70 g/ha [1, 8]: 75 to 84% | pest or weed control at 140 g/ha [1, 8]: 95 to 100% | pest or weed control at 70 g/ha [1, 9]: 60 to 74% | pest or weed control at 140 g/ha [1, 9]: 95 to 100% | pest or weed control at 70 g/ha [2, 10]: 95 to 100% | pest or weed control at 140 g/ha [2, 10]: 95 to 100% | pest or weed control at 70 g/ha [2, 11]: 45 to 59% | pest or weed control at 140 g/ha [2, 11]: 45 to 59% | pest or weed control at 70 g/ha [2, 12]: 0 to 29% | pest or weed control at 140 g/ha [2, 12]: 60 to 74% | pest or weed control at 70 g/ha [2, 13]: 0 to 29% | pest or weed control at 140 g/ha [2, 13]: 0 to 29% | pest or weed control at 70 g/ha [2, 14]: 0 to 29% | pest or weed control at 140 g/ha [2, 14]: 30 to 44% | pest or weed control at 70 g/ha [2, 15]: 0 to 29% | pest or weed control at 140 g/ha [2, 15]: 30 to 44% | pest or weed control at 70 g/ha [2, 16]: 30 to 44% | pest or weed control at 140 g/ha [2, 16]: 60 to 74% | pest or weed control at 70 g/ha [2, 17]: 95 to 100% | pest or weed control at 140 g/ha [2, 17]: 95 to 100%
